Source: patent US7091211B2, “Cyclopentyl modulators of chemokine receptor activity” (Merck & Co., Inc., priority 2003, dated 2006)
Counter-ions that a name gives are not always drawn.

target: T1, CCR3 (Homo sapiens, UniProt P51677); experiment: Assay for determining CCR3 binding activity; settings: assay disclosed in U.S. Pat. No. 6,303,593 or 6,538,002
T1 sequence (P51677 1-355): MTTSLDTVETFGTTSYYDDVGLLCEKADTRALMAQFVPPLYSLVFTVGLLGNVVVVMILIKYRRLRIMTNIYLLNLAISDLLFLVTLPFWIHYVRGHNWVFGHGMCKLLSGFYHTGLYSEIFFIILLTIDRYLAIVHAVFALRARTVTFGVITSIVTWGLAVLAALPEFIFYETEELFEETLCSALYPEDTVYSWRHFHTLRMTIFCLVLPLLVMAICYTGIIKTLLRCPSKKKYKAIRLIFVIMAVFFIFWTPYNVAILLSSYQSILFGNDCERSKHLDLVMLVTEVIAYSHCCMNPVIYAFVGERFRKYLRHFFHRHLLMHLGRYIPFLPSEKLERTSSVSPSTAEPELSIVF
Source text: Cell lines for expressing the receptor of interest include those naturally expressing the receptor, such as […] or THP-1, or a cell engineered to express a recombinant receptor, such as CHO, RBL-2H3, or HEK-293. For example, a CCR3 transfected AML14.3D10 cell line has been placed on restricted deposit with American Type Culture Collection as ATCC No. CRL-12079.
The CCR3 binding activity of representative compounds of the present invention can be determined via the assay disclosed in U.S. Pat. No. 6,303,593 or U.S. Pat. No. 6,538,002.

**Q.** For `CCc1c2c(nn1CC)C1(CC2)CCN(C[C@H]2C[C@H](N(C)[C@@H](C(=O)O)C(C)C)C[C@@H]2c2cccc(F)c2)CC1` [Example 2, N-Methyl-N-(1-(R)-3-(S)-((2,3-diethyl-4,5-dihydrospiro[cyclopentapyrazole-6(2H),4′-piperidin-1′-yl])methyl)-4-(S)-(3-fluorophenyl)cyclopent-1-yl)-(R)-valine trihydrochloride salt], which IC50 is on record?
**A.** < 10 µM

**Q.** For `CCc1nn(CC)c2c1CCC21CCN(C[C@H]2C[C@H](N(C)[C@@H](C(=O)O)C(C)C)C[C@@H]2c2cccc(F)c2)CC1` [Example 1, N-Methyl-N-(1-(R)-3-(S)-((1,3-diethyl-4,5-dihydrospiro[cyclopentapyrazole-6(1H),4′-piperidin-1′-yl])methyl)-4-(S)-(3-fluorophenyl)cyclopent-1-yl)-(R)-valine trihydrochloride salt], which IC50 is on record?
**A.** < 10 µM

**Q.** How did the IC50 turn out when `CCn1cc2c(n1)CCC21CCN(C[C@H]2C[C@H](N(C)[C@@H](C(=O)O)C(C)C)C[C@@H]2c2cccc(F)c2)CC1` [Example 15, N-Methyl-N-(1-(R)-3-(S)-((2-ethyl-5,6 dihydrospiro[cyclopentapyrazole-4(2H),4′-piperidin-1′-yl])methyl)-4-(S)-(3-fluorophenyl)cyclopent-1-yl)-(R)-valine trihydrochloride salt] was run?
**A.** < 10 µM

**Q.** Which IC50 does the source give for `CCc1nn(CC)c2c1CCC21CCN(C[C@H]2C[C@H](N(C)[C@@H](C(=O)O)C(C)C)C[C@@H]2c2ccc(F)c(F)c2)CC1` [Example 25, N-Methyl-N-(1-(R)-3-(S)-((1,3-diethyl-4,5-dihydrospiro[cyclopentapyrazole-6(1H),4′-piperidin-1′-yl])methyl)-4-(S)-(3,4-difluorophenyl)cyclopent-1-yl)-(R)-valine trihydrochloride salt] here?
**A.** < 10 µM

**Q.** For `CCn1ncc2c1C1(CC2)CCN(C[C@H]2C[C@H](N(C)[C@@H](C(=O)O)C(C)C)C[C@@H]2c2cccc(F)c2)CC1` [Example 6, N-Methyl-N-(1-(R)-3-(S)-((1-ethyl-4,5-dihydrospiro[cyclopentapyrazole-6(1H),4′-piperidin-1′-yl])methyl)-4-(S)-(3-fluorophenyl)cyclopent-1-yl)-(R)-valine trihydrochloride salt], which IC50 is on record?
**A.** < 10 µM

**Q.** `CCc1nn(CC)c2c1CCC21CCN(C[C@H]2C[C@H](N(CC)[C@@H](C(=O)O)C(C)C)C[C@@H]2c2cccc(F)c2)CC1` [Example 18, N-Ethyl-N-(1-(R)-3-(S)-((1,3-diethyl-4,5-dihydrospiro[cyclopentapyrazole-6(1H),4′-piperidin-1′-yl])methyl)-4-(S)-(3-fluorophenyl)cyclopent-1-yl)-(R)-valine trihydrochloride salt] was tested. Which IC50 did it give?
**A.** < 10 µM

**Q.** Which IC50 does the source give for `CCc1onc2c1CCC21CCN(C[C@H]2C[C@H](N(C)[C@@H](C(=O)O)C(C)C)C[C@@H]2c2cccc(F)c2)CC1` [Example 12, N-Methyl-N-(1-(R)-3-(S)-((3-ethyl-4,5-dihydrospiro[6H-cyclopent[c]isoxazole-6,4′-piperidin-1′-yl])methyl)-4-(S)-(3-fluorophenyl)cyclopent-1-yl)-(R)-valine trihydrochloride salt] here?
**A.** < 10 µM

**Q.** `CCc1nn(CC)c2c1CCC21CCN(C[C@H]2C[C@H]([C@@H](C(=O)O)N(C)C(C)(C)CC)C[C@@H]2c2cccc(F)c2)CC1` [Example 46, 2-(S)-(1-(R)-3-(S)-((1,3-Diethyl-4,5-dihydrospiro[cyclopentapyrazole-6(1H),4′-piperidin-1′-yl])methyl)-4-(S)-(3-fluorophenyl)cyclopent-1-yl)-2-((1,1-dimethylprop-1-yl)methylamino)acetic acid trihydrochloride salt] was tested. Which IC50 did it give?
**A.** < 10 µM

**Q.** How did the IC50 turn out when `CCc1nn(CC)c2c1C1(CC2)CCN(C[C@H]2C[C@H](N(C)[C@@H](C(=O)O)C(C)C)C[C@@H]2c2cccc(F)c2)CC1` [Example 16, N-Methyl-N-(1-(R)-3-(S)-((1,3-diethyl-5,6 dihydrospiro[cyclopentapyrazole-4(1H),4′-piperidin-1′-yl])methyl)-4-(S)-(3-fluorophenyl)cyclopent-1-yl)-(R)-valine trihydrochloride salt] was run?
**A.** < 10 µM

**Q.** `CCc1nn(C)c2c1CCC21CCN(C[C@H]2C[C@H](N(C)[C@@H](C(=O)O)C(C)C)C[C@@H]2c2cccc(F)c2)CC1` [Example 3, N-Methyl-N-(1-(R)-3-(S)-((3-ethyl-1-methyl-4,5-dihydrospiro[cyclopentapyrazole-6(1H),4′-piperidin-1′-yl])methyl)4-(S)-(3-fluorophenyl)cyclopent-1-yl)-(R)-valine trihydrochloride salt] was tested. Which IC50 did it give?
**A.** < 10 µM

**Q.** Which IC50 does the source give for `CCc1nn(CC)c2c1CCC21CCN(C[C@H]2C[C@H](N(C)[C@@H](C(=O)O)C(C)(C)C)C[C@@H]2c2cccc(F)c2)CC1` [Example 20, N-Methyl-N-(1-(R)-3-(S)-((1,3-diethyl-4,5-dihydrospiro[cyclopentapyrazole-6(1H),4′-piperidin-1′-yl])methyl)-4-(S)-(3-fluorophenyl)cyclopent-1-yl)-(R)-t-butylglycine trihydrochloride salt] here?
**A.** < 10 µM

**Q.** For `CCc1nn(CC)c2c1CCC21CCN(C[C@H]2C[C@H]([C@H](NC(C)(C)CC)C(=O)O)C[C@@H]2c2cccc(F)c2)CC1` [Example 45, 2-(S)-(1-(R)-3-(S)-((1,3-Diethyl-4,5-dihydrospiro[cyclopentapyrazole-6(1H),4′-piperidin-1′-yl])methyl)-4-(S)-(3-fluorophenyl)cyclopent-1-yl)-2-(1,1-dimethylprop-1-ylamino)acetic acid trihydrochloride salt], which IC50 is on record?
**A.** < 10 µM
